Data: patent publication US10233190B2, “IDO inhibitors” (NewLink Genetics Corporation, priority 2011, dated 2019)

Key:
[1] = Steady state plasma concentration from subcutaneous osmotic pumps
LLC murine tumor cells = assay: In vivo antitumor activity, LLC tumor allograft, alone or with chemotherapy; details: for antitumor effect: LLC tumor in C57Bl6 mice, single agent or in combination with chemotherapy

## OC(CC1c2ccccc2-c2cncn21)C1CCCCC1 (stereo not drawn) [Compound 1304, 1-cyclohexyl-2-(5H-imidazo[5,1-a]isoindol-5-yl)ethanol]
[1]; s.c. osmotic pumps, 200 uL of 30 mg/mL solution, 1 uL per hour for 8 days
  steady state plasma concentration of drug: 0.5 to 3 µM
LLC murine tumor cells
  antitumor effect: significant antitumor effect
LLC murine tumor cells; LLC tumor, after 60 days
  long term survival fraction, mice tumor free after 60 days: 70-80%
LLC murine tumor cells; LLC tumor, single agent or in combination with cyclophosphamide
  median survival time (log rank test): statistically significant difference in median survival time
LLC murine tumor cells; LLC tumor, single agent or in combination with cyclophosphamide 100 mg/kg i.p.
  average tumor volume over time: very sensitive to the effects of treatment

## OC(CC1c2c(F)cccc2-c2cncn21)C1CCCCC1 (stereo not drawn) [Compound 1357, 1-cyclohexyl-2-(6-fluoro-5H-imidazo[5,1-a]isoindol-5-yl)ethanol]
[1]; mouse, in vivo
  steady state plasma concentration of drug: 0.5 to 3 µM
LLC murine tumor cells
  antitumor effect: significant antitumor effect
LLC murine tumor cells; LLC tumor, single agent
  median survival time vs vehicle (log rank test): statistically significant difference in median survival time
LLC murine tumor cells; LLC tumor, single agent, osmotic pumps, p<0.0001
  average tumor volume over time vs vehicle (fitted exponential growth curves): statistically significant differences
